Patent publication US20250101001A1 (priority 2021, published 2025)

What was measured:
5HT2A sensor = assay type: cell-based
5-HT2A [1] = molecular target: T1, 5-HT2A (Homo sapiens, UniProt P28223); test: Serotonin 5-HT2A in vitro cellular IPOne agonism assay; assay type: cell-based; set-up: host or cells: CHO-K1; details: CHO-K1 cells, IPOne HTRF, agonist mode
Procedure: Serotonin 5-HT2A In Vitro Cellular IPOne Agonism Assay. The 5-HT2A IPOne HTRF assay was performed at Epics Therapeutics S.A. (Belgium, FAST-0505I) using conventional methods. Briefly, CHO-K1 cells expressing human recombinant 5-HT2A receptor grown to mid-log phase in culture media without antibiotics were detached with PBS-EDTA, centrifuged, and resuspended in medium without antibiotics buffer. 20,000 cells are distributed in a 96 well plate and incubated overnight at 37° C. with 5% Co2.
For agonist testing, the medium was removed and […] of assay buffer plus 20 μl of test compound or reference agonist were added in each well. The plate was incubated for 60 min. at 37° C. with 5% CO2.
(§1) After addition of the lysis buffer containing IP1-d2 and anti-IP1 cryptate detection reagents, plates were incubated 1-hour at room temperature, and fluorescence ratios were measured according to the manufacturer specification, with the HTRF kit.

5-HT2A [2] = molecular target: T1, 5-HT2A; test: Serotonin 5-HT2A in vitro cellular IPOne antagonism assay; assay type: cell-based; set-up: host or cells: CHO-K1; details: CHO-K1 cells, IPOne HTRF, reference agonist a-Me-5HT
Procedure: Serotonin 5-HT2A and 5-HT2C In Vitro Cellular IPOne Antagonism Assay. The 5-HT2A and 5-HT2C IPOne HTRF assay was performed at Epics Therapeutics S.A. (Belgium, FAST-0505I) in antagonism mode using conventional methods. Briefly, CHO-K1 cells expressing human recombinant 5-HT2A or 5-HT2C receptor grown to mid-log phase in culture media without antibiotics were detached with PBS-EDTA, centrifuged, and resuspended in medium without antibiotics buffer. 20,000 cells were distributed in a 96 well plate and incubated overnight at 37° C. with 5% C02.
For antagonist testing, a reference agonist a-Me-5HT was added and fluorescence signal monitored for several minutes, followed by addition of 20 μlof assay buffer plus 20 μl of test compound or reference antagonist ketanserin, in each well. The plate was incubated for 60 min. at 37° C. with 5% CO2.
as §1

5-HT2A [3] = molecular target: T1, 5-HT2A; test: Serotonin 5-HT2A in vitro radioligand binding competition assay ([3H]-DOI); set-up: purchased Epics Therapeutics S. A. (Belgium) FAST-0505B; details: [3H]-DOI competition, membrane extracts
Procedure: Serotonin 5-HT2A In Vitro Radioligand Binding Competition Assay. The 5-HT2A radioligand binding competition assay was performed at Epics Therapeutics S. A. (Belgium, FAST-0505B) using conventional methods. Briefly, competition binding was performed in duplicate in the wells of a 96 well plate (Master Block, Greiner, 786201) containing binding buffer (optimized for each receptor), membrane extracts (amount of protein/well optimized for each receptor), radiotracer [^3H]-DOI (final concentration optimized for each receptor) and test compound. Nonspecific binding was determined by co-incubation with 200-fold excess of cold competitor. The samples were incubated in a final volume of 0.1 ml at a temperature and for a duration optimized for each receptor and then filtered over filter plates. Filters were washed six times with 0.5 ml of ice-cold washing buffer (optimized for each receptor) and 50 μl of Microscint 20 (Packard) were added in each well. The plates were incubated 15 min on an orbital shaker and then counted with a TopCount™ for 1 min/well.

T1 sequence (P28223 whole entry): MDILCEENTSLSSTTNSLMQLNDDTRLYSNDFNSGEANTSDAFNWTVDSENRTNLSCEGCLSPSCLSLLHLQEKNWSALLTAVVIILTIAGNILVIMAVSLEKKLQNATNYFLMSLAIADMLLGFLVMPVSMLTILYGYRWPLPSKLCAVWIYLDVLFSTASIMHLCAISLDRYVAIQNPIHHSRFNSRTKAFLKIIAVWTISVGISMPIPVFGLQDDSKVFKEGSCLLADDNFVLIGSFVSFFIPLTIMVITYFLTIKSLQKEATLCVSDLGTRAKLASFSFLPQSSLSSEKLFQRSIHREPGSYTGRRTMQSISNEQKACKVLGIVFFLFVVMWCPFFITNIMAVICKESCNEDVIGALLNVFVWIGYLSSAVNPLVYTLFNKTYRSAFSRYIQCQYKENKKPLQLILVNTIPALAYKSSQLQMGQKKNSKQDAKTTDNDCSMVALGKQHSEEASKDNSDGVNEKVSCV

Row | SMILES | activation of the 5HT2A sensor assay in agonist mode (5HT2A sensor) | EC50 (5-HT2A [1]) | IC50 (5-HT2A [2]) | IC50 (5-HT2A [3])
1 | COc1cc(CC(C)N)c(OC)cc1I.Cl (racemic) [DOI] | activate the 5HT2A sensor assay in agonist mode | – | – | –
2 | Cc1cn(C2CNC2)c2ccc(F)cc12 [Compound 1, 1-(azetidin-3-yl)-5-fluoro-3-methyl-1H-indole] | – | > 10 µM | 1 to 10 µM | 0.101 to 1 µM
3 | Fc1ccc2c(ccn2C2CNC2)c1F [Compound 2, 1-(azetidin-3-yl)-4,5-difluoro-1H-indole] | – | > 10 µM | 0.101 to 1 µM | 0.101 to 1 µM
4 | Cc1cn(C2CCNCC2)c2ccc(F)cc12 [Compound 3, 5-fluoro-3-methyl-1-(piperidin-4-yl)-1H-indole] | – | > 10 µM | 0.101 to 1 µM | 0.101 to 1 µM
5 | Fc1ccc2c(ccn2C2CCNCC2)c1F [Compound 4, 4,5-difluoro-1-(piperidin-4-yl)-1H-indole] | – | > 10 µM | 0.101 to 1 µM | 0.101 to 1 µM
6 | Cc1cn(C2CN(C)C2)c2ccc(F)cc12 [Compound 5, 5-fluoro-3-methyl-1-(1-methylazetidin-3-yl)-1H-indole] | – | > 10 µM | 1 to 10 µM | 0.101 to 1 µM
7 | CN1CC(n2ccc3c(F)c(F)ccc32)C1 [Compound 6, 4,5-Difluoro-1-(1-methylazetidin-3-yl)-1H-indole] | – | > 10 µM | 0.101 to 1 µM | 0.101 to 1 µM
8 | Cc1cn(C2CCN(C)C2)c2ccc(F)cc12 (stereo not drawn) [Compound 7, 5-Fluoro-3-methyl-1-(1-methylpyrrolidin-3-yl)-1H-indole] | – | > 10 µM | 1 to 10 µM | 1 to 10 µM
9 | CN1CCC(n2ccc3c(F)c(F)ccc32)C1 (stereo not drawn) [Compound 8, 4,5-difluoro-1-(1-methylpyrrolidin-3-yl)-1H-indole] | – | 0.101 to 1 µM | 0.101 to 1 µM | 0.101 to 1 µM
10 | Cc1cn(C2CCN(C)CC2)c2ccc(F)cc12 [Compound 9, 5-fluoro-3-methyl-1-(1-methylpiperidin-4-yl)-1H-indole] | – | > 10 µM | 0.101 to 1 µM | 0.101 to 1 µM
11 | CN1CCC(n2ccc3c(F)c(F)ccc32)CC1 [Compound 10, 4,5-difluoro-1-(1-methylpiperidin-4-yl)-1H-indole] | – | > 10 µM | 0.101 to 1 µM | 0.101 to 1 µM
12 | CC(C)c1cn(C2CCN(C)C2)c2ccc(F)cc12 (stereo not drawn) [Compound 11, 5-fluoro-3-isopropyl-1-(1-methylpyrrolidin-3-yl)-1H-indole] | – | > 10 µM | 0.101 to 1 µM | 1 to 10 µM
13 | CN1CCC(n2cc(-c3ccccc3)c3cc(F)ccc32)C1 (stereo not drawn) [Compound 12, 5-fluoro-1-(1-methylpyrrolidin-3-yl)-3-phenyl-1H-indole] | – | > 10 µM | 0.01 to 0.1 µM | 0.01 to 0.1 µM
14 | Cc1cn(C2CCN(C)C2)c2ccc(OC3COC3)cc12 (stereo not drawn) [Compound 13, 3-Methyl-1-(1-methylpyrrolidin-3-yl)-5-(oxetan-3-yloxy)-1H-indole] | – | > 10 µM | – | > 10 µM
15 | Cc1cn(C2CCNC2)c2ccc(F)cc12 (stereo not drawn) [Compound 14, 5-fluoro-3-methyl-1-(pyrrolidin-3-yl)-1H-indole] | – | 0.101 to 1 µM | 0.101 to 1 µM | 0.101 to 1 µM
16 | Fc1ccc2c(ccn2C2CCNC2)c1F (stereo not drawn) [Compound 15, 4,5-Difluoro-1-(pyrrolidin-3-yl)-1H-indole] | – | 0.101 to 1 µM | 0.101 to 1 µM | 0.101 to 1 µM
17 | CCN1CCC(n2cc(C)c3cc(F)ccc32)C1 (stereo not drawn) [Compound 16, 1-(1-Ethylpyrrolidin-3-yl)-5-fluoro-3-methyl-1H-indole] | – | > 10 µM | – | 1 to 10 µM
18 | CCN1CCC(n2ccc3c(F)c(F)ccc32)C1 (stereo not drawn) [Compound 17, 1-(1-ethylpyrrolidin-3-yl)-4,5-difluoro-1H-indole] | – | > 10 µM | 1 to 10 µM | 1 to 10 µM
19 | Cc1cn(C2CCN(C(C)C)C2)c2ccc(F)cc12 (stereo not drawn) [Compound 18, 5-fluoro-1-(1-isopropylpyrrolidin-3-yl)-3-methyl-1H-indole] | – | > 10 µM | – | 1 to 10 µM

Row | SMILES | activation of the 5HT2A sensor assay in agonist mode (5HT2A sensor) | EC50 (5-HT2A [1]) | IC50 (5-HT2A [2]) | IC50 (5-HT2A [3])
20 | CC(C)N1CCC(n2ccc3c(F)c(F)ccc32)C1 (stereo not drawn) [Compound 19, 4,5-difluoro-1-(1-isopropylpyrrolidin-3-yl)-1H-indole] | – | > 10 µM | – | 1 to 10 µM
21 | Cc1cn(C2CCN(C3COC3)C2)c2ccc(F)cc12 (stereo not drawn) [Compound 20, 5-fluoro-3-methyl-1-(1-(oxetan-3-yl)pyrrolidin-3-yl)-1H-indole] | – | > 10 µM | – | > 10 µM
22 | Fc1ccc2c(ccn2C2CCN(C3COC3)C2)c1F (stereo not drawn) [Compound 21, 4,5-difluoro-1-(1-(oxetan-3-yl)pyrrolidin-3-yl)-1H-indole] | – | > 10 µM | – | > 10 µM
23 | COCCN1CCC(n2cc(C)c3cc(F)ccc32)C1 (stereo not drawn) [Compound 22, 5-Fluoro-1-(1-(2-methoxyethyl)pyrrolidin-3-yl)-3-methyl-1H-indole] | – | > 10 µM | – | 1 to 10 µM
24 | COCCN1CCC(n2ccc3c(F)c(F)ccc32)C1 (stereo not drawn) [Compound 23, 4,5-Difluoro-1-(1-(2-methoxyethyl)pyrrolidin-3-yl)-1H-indole] | – | > 10 µM | 1 to 10 µM | 1 to 10 µM
25 | Clc1ccc2c(ccn2C2CNC2)c1 [Compound 24, 1-(azetidin-3-yl)-5-chloro-1H-indole] | – | > 10 µM | 0.101 to 1 µM | 1 to 10 µM
26 | N#Cc1ccc2c(ccn2C2CNC2)c1 [Compound 25, 1-(azetidin-3-yl)-1H-indole-5-carbonitrile] | – | > 10 µM | > 10 µM | > 10 µM
27 | Fc1cccc2ccn(C3CNC3)c12 [Compound 26, 1-(azetidin-3-yl)-7-fluoro-1H-indole] | – | 1 to 10 µM | 1 to 10 µM | 1 to 10 µM
28 | Fc1ccc2c(ccn2C2CNC2)c1 [Compound 27, 1-(azetidin-3-yl)-5-fluoro-1H-indole] | – | > 10 µM | 0.101 to 1 µM | 0.101 to 1 µM
29 | Fc1ccc2ccn(C3CNC3)c2c1 [Compound 28, 1-(azetidin-3-yl)-6-fluoro-1H-indole] | – | > 10 µM | 0.101 to 1 µM | 0.101 to 1 µM
30 | COc1ccc2c(ccn2C2CNC2)c1 [Compound 29, 1-(azetidin-3-yl)-5-methoxy-1H-indole] | – | > 10 µM | > 10 µM | > 10 µM
31 | CN1CC(n2ccc3cc(F)ccc32)C1 [Compound 30, 5-fluoro-1-(1-methylazetidin-3-yl)-1H-indole] | – | > 10 µM | 0.101 to 1 µM | 0.101 to 1 µM
32 | COc1ccc2c(ccn2C2CN(C)C2)c1 [Compound 31, 5-methoxy-1-(1-methylazetidin-3-yl)-1H-indole] | – | > 10 µM | > 10 µM | > 10 µM
33 | CN1CC(n2ccc3c(F)cccc32)C1 [Compound 32, 4-fluoro-1-(1-methylazetidin-3-yl)-1H-indole] | – | > 10 µM | 0.101 to 1 µM | 0.101 to 1 µM
34 | CN1CC(n2ccc3ccc(F)cc32)C1 [Compound 33, 6-fluoro-1-(1-methylazetidin-3-yl)-1H-indole] | – | > 10 µM | 0.101 to 1 µM | 0.101 to 1 µM
35 | CN1CC(n2ccc3cccc(F)c32)C1 [Compound 34, 7-fluoro-1-(1-methylazetidin-3-yl)-1H-indole] | – | > 10 µM | 1 to 10 µM | 0.101 to 1 µM
36 | Cc1ccc2c(ccn2C2CN(C)C2)c1 [Compound 35, 5-methyl-1-(1-methylazetidin-3-yl)-1H-indole] | – | > 10 µM | 1 to 10 µM | 1 to 10 µM
37 | CN1CC(n2ccc3cc(Cl)ccc32)C1 [Compound 36, 5-chloro-1-(1-methylazetidin-3-yl)-1H-indole] | – | > 10 µM | > 10 µM | > 10 µM
38 | CN1CC(n2ccc3cc(C#N)ccc32)C1 [Compound 37, 1-(1-methylazetidin-3-yl)-1H-indole-5-carbonitrile] | – | > 10 µM | > 10 µM | > 10 µM
